# Tests used:
# [1] = test system: subjects with mild traumatic brain injury (TBI); test: Total cholesterol in mild TBI subjects, pregnenolone 8 weeks (100, 300, then 500 mg/day oral) versus placebo; type: in vivo, human; details: baseline to study completion (8 weeks), t-test of change scores p=0.035, FIG. 3
# Excerpt: Ten (10) additional subjects with mild TBI were given a placebo.
# [2] = test system: patients with schizophrenia or schizoaffective disorder; test: SANS negative symptoms; randomized placebo-controlled 8-week trial of adjunctive pregnenolone (100, 300, then 500 mg/day oral); type: in vivo, human; details: for SANS Total, change: text prints it as positive mean change (improvement); for SANS Total, difference PG vs placebo: points; for SANS Affect subscale score / SANS Alogia subscale score / SANS Anhedonia/asociality subscale score / SANS Attention subscale score / SANS Avolition/apathy subscale score / SANS Total score: mean ± SD, n = 8
# Description: Study Design and Subjects. Disclosed herein is a placebo-controlled, double-blind, parallel group, randomized trial of adjunctive pregnenolone for the treatment of cognitive and negative symptoms in patients with schizophrenia or schizoaffective disorder. […] Patients received a total of 6 study visits, which took place every two weeks. […] The trial was conducted at a single site, the Durham Veterans Affairs Medical Center in Durham, N.C. The protocol was approved by the local institutional review board and conducted under FDA Investigational New Drug (IND) #71,768. The ClinicalTrials.gov number for this study is NCT00560937.
# Subjects were outpatients between the ages of 18 and 65 with schizophrenia or schizoaffective disorder diagnosed by DSM-IV/DSM-IV-TR criteria utilizing the Structured Clinical Interview (First et al., 1996) and medical records. All subjects were between the ages of 18-65 and provided informed consent. Duration of illness was greater than one year for all enrolled patients. To be eligible for the trial, patients had to be taking a second-generation antipsychotic (aripiprazole, olanzapine, quetiapine, or risperidone) for at least 8 weeks, with no changes in antipsychotic dosing in the preceding 4 weeks. Patients receiving first-generation antipsychotics were excluded. Concomitant psychiatric medications were permissible (antidepressants, mood stabilizers, anticholinergics, other), provided that patients were receiving stable doses of all of these medications in the 4 weeks preceding the trial and throughout the entire duration of the study. Any change in psychiatric medications at any point during the study rendered a patient ineligible to continue participation.
# During the screening visit (Visit 1), patients received a physical exam, vital signs, and electrocardiogram (EKG), as well as baseline laboratory measures consisting of serum electrolytes, glucose, creatinine, blood urea nitrogen (chemistry 7 panel), liver function tests, complete blood count (CBC), urinalysis, urine toxicology test, thyroid stimulating hormone (TSH), and prolactin, and serum pregnancy test if female. These tests were also repeated at the completion of the study (Visit 6). In addition, patients received an interim EKG 4 weeks post-randomization, as well as a serum pregnancy test if female (Visit 4). Patients also received a chemistry 7 panel, CBC, and liver function tests at Visits 2, 3, 4, and 5 (i.e., at all study visits). Psychiatric symptoms were assessed at baseline using the Scale for the Assessment of Negative Symptoms (Andreasen, 1983), the Positive and Negative Symptom Scale (PANSS; Kay et al., 1987), the Calgary Depression Rating Scale (CDRS; Addington et al., 1990), the Clinical Global Impressions Improvement (CGI-I) and Severity (CGI-S) scales, the Barnes Akathisia Scale (BAS; Barnes, 1989), the Simpson Angus Scale for Extrapyramidal Symptoms (SAS; Simpson & Angus, 1970), the Quality of Life Scale (QOL; Heinrichs et al., 1984), and the Hillside Side Effects Scale. One research nurse with five years of experience in the conduction of schizophrenia clinical trials completed both psychiatric and cognitive assessments throughout the study, and was trained to one point of divergence on each PANSS item.
# [3] = Difference in change from Week 0 to Week 8
structure (smiles),measurement,setting,value
"CC(=O)[C@H]1CC[C@H]2[C@@H]3CC=C4C[C@@H](O)CC[C@]4(C)[C@H]3CC[C@]12C [PG, pregnenolone]",Total cholesterol (percent change) compared to placebo,[1],statistically significant reduction
same,Total cholesterol (percent change) compared to placebo,[1]; listed as pregnenolone,reduced
same,"SANS Affect subscale, change",[2]; Change from Week 0 to Week 8,−4.3 ± 1.7
same,"SANS Alogia subscale, change",[2]; Change from Week 0 to Week 8,−1.9 ± 0.8
same,"SANS Anhedonia/asociality subscale, change",[2]; Change from Week 0 to Week 8,−2.4 ± 1.3
same,"SANS Attention subscale, change",[2]; Change from Week 0 to Week 8,−1.6 ± 0.4
same,"SANS Avolition/apathy subscale, change",[2]; Change from Week 0 to Week 8,−0.3 ± 0.3
same,"SANS Total, change",[2]; Change from Week 0 to Week 8,−10.4 ± 10.2
same,"SANS Total, change","[2]; Change from Week 0 to Week 8, listed as pregnenolone",10.38±10.18
same,"SANS Affect subscale, difference PG vs placebo",[2]; [3],−4.5 ± 1.9
same,"SANS Alogia subscale, difference PG vs placebo",[2]; [3],−1.5 ± 0.8
same,"SANS Anhedonia/asociality subscale, difference PG vs placebo",[2]; [3],−1.6 ± 1.3
same,"SANS Attention subscale, difference PG vs placebo",[2]; [3],−0.5 ± 0.5
same,"SANS Avolition/apathy subscale, difference PG vs placebo",[2]; [3],0.1 ± 0.6
same,"SANS Total, difference PG vs placebo",[2]; [3],−8.0 ± 3.7
same,"SANS Total, difference PG vs placebo","[2]; Difference in change from Week 0 to Week 8, listed as Pregnenolone",approximately 8
same,SANS Affect subscale score,[2]; Week 0 (baseline),13.4 ± 5.0
same,SANS Alogia subscale score,[2]; Week 0 (baseline),8.8 ± 3.6
same,SANS Anhedonia/asociality subscale score,[2]; Week 0 (baseline),12.0 ± 4.5
same,SANS Attention subscale score,[2]; Week 0 (baseline),5.6 ± 1.1
same,SANS Avolition/apathy subscale score,[2]; Week 0 (baseline),8.3 ± 2.5
same,SANS Total score,[2]; Week 0 (baseline),50.8 ± 12.2
same,SANS Total score,"[2]; Week 0 (baseline), listed as pregnenolone",47.56±12.09
same,SANS Affect subscale score,[2]; Week 4,14.3 ± 3.2
same,SANS Alogia subscale score,[2]; Week 4,7.8 ± 3.2
same,SANS Anhedonia/asociality subscale score,[2]; Week 4,10.4 ± 4.1
same,SANS Attention subscale score,[2]; Week 4,5.3 ± 1.0
same,SANS Avolition/apathy subscale score,[2]; Week 4,8.1 ± 1.0
same,SANS Total score,[2]; Week 4,45.8 ± 8.8
same,SANS Affect subscale score,[2]; Week 8,11.9 ± 0.4
same,SANS Alogia subscale score,[2]; Week 8,6.9 ± 2.1
same,SANS Anhedonia/asociality subscale score,[2]; Week 8,9.6 ± 3.5
same,SANS Attention subscale score,[2]; Week 8,4.0 ± 0
same,SANS Avolition/apathy subscale score,[2]; Week 8,8.0 ± 0.5
same,SANS Total score,[2]; Week 8,40.4 ± 3.5

# — patent US20120142645A1, “NEUROACTIVE STEROID COMPOSITIONS AND METHODS OF USE FOR LOWERING CHOLESTEROL” (priority 2009, published 2012)
